Source: ChEMBL document CHEMBL1201862, “PubChem BioAssay data set” (2004)
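Dose response: 5 concentrations. Exposure: 48 h. Format: 96-well plates. Endpoint: linear interpolation; highest concentration if not reached. GI50 is the concentration that inhibits growth by half.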 Activity calls are given as the source filed them. No stated cut-off is given here; in the data, active = GI50 up to about 1.1 µM and inactive = higher.

Legend:
Test in all cases: NCI-60 cell line screen, 48 h
HOP-92 = system: HOP-92
LOX IMVI = system: LOX IMVI
RXF 393 = system: RXF 393
SNB-78 = system: SNB-78
TK-10 = system: TK-10
ACHN = system: ACHN
Malme-3M = system: Malme-3M
NCI-H226 = system: NCI-H226
SR = system: SR
786-0 = system: 786-0
BT-549 = system: BT-549
DU-145 = system: DU-145
Hs-578T = system: Hs-578T
MCF7 = system: MCF7
MDA-MB-231 = system: MDA-MB-231
MDA-MB-435 = system: MDA-MB-435
MDA-N = system: MDA-N
NCI/ADR-RES = system: NCI/ADR-RES
PC-3 = system: PC-3
T47D = system: T47D

Measured: GI50

COc1ccc(C(=O)NNC(=O)c2nsc3ccccc23)cc1
inactive: HOP-92 40.1 µM | LOX IMVI 58.2 µM | RXF 393 > 100 µM | SNB-78 > 100 µM | TK-10 > 100 µM

CCOC(=O)C1CCn2c(nc3c2c(=O)n(C)c(=O)n3C)S1 (stereo not given)
inactive: ACHN > 100 µM | LOX IMVI > 100 µM | Malme-3M > 100 µM | NCI-H226 > 100 µM | RXF 393 > 100 µM | SNB-78 > 100 µM | SR 77.1 µM | TK-10 > 100 µM

O=C(NN1C(=O)CSC1c1cccc(F)c1)c1ccncc1 (stereo not given)
inactive: ACHN > 100 µM | LOX IMVI > 100 µM | Malme-3M > 100 µM | RXF 393 > 100 µM | SNB-78 > 100 µM | TK-10 > 100 µM

Cc1cc(=O)c2c([nH]1)NS(=O)(=O)NC2=O
inactive: 786-0 > 100 µM | HOP-92 > 100 µM | Malme-3M > 100 µM | NCI-H226 > 100 µM | SNB-78 > 100 µM | SR > 100 µM | TK-10 > 100 µM

Cc1cc(=O)oc2c1cc1ccc3cccc4ccc2c1c34
inactive: ACHN 46.7 µM | HOP-92 31.5 µM | LOX IMVI > 100 µM | Malme-3M > 100 µM | NCI-H226 > 100 µM | SNB-78 83 µM | TK-10 > 100 µM

O=C1CCC(NC(=O)Cc2ccc(O)cc2)C(=O)N1 (stereo not given)
inactive: ACHN > 2500 µM | HOP-92 > 2500 µM | LOX IMVI > 2500 µM | NCI-H226 > 2500 µM | SNB-78 > 2500 µM | TK-10 > 2500 µM

Cc1ccc(C2CC(c3cccc([N+](=O)[O-])c3)=Nc3ccccc3S2)cc1 (stereo not given)
inactive: 786-0 21.8 µM | ACHN 50.1 µM | HOP-92 7.01 µM | LOX IMVI 21.6 µM | Malme-3M > 88.9 µM | NCI-H226 > 44.1 µM | RXF 393 29 µM | SNB-78 23.2 µM | SR 25.8 µM | TK-10 83.2 µM

O=C1CSC(/C=C/c2ccccc2)N1c1nc2cc3sc(N4C(=O)CSC4/C=C/c4ccccc4)nc3cc2s1 (stereo not given)
inactive: 786-0 > 58.9 µM | ACHN 42.1 µM | BT-549 > 75.9 µM | DU-145 > 48.9 µM | HOP-92 > 100 µM | Hs-578T > 54 µM | LOX IMVI > 41.3 µM | MCF7 13.5 µM | MDA-MB-231 62.2 µM | MDA-MB-435 > 65.6 µM | MDA-N > 44.8 µM | Malme-3M > 87.1 µM | NCI-H226 17.1 µM | NCI/ADR-RES > 87.1 µM | PC-3 54.2 µM | RXF 393 > 100 µM | SR 14.6 µM | T47D > 100 µM | TK-10 37.2 µM

CC1CC(C[N+](=O)[O-])CC2(C1)OCCO2 (stereo not given)
inactive: 786-0 > 100 µM | ACHN > 100 µM | Malme-3M > 100 µM | NCI-H226 > 100 µM | RXF 393 > 100 µM | SNB-78 > 100 µM | SR > 100 µM | TK-10 > 100 µM

O=C(OCCOC(=O)c1ccc2c(c1)C1(SCCS1)c1ccccc1-2)c1ccc2c(c1)C1(SCCS1)c1ccccc1-2
inactive: ACHN > 100 µM | LOX IMVI > 100 µM | Malme-3M > 100 µM | NCI-H226 > 100 µM | SNB-78 > 100 µM | SR > 100 µM

O=C1NC(O)CCN1C1OC(CO)C(O)C1O (stereo not given)
inactive: HOP-92 > 250 µM | LOX IMVI > 136 µM | MCF7 > 250 µM | Malme-3M > 250 µM | NCI-H226 > 250 µM | NCI/ADR-RES > 250 µM | RXF 393 > 250 µM | SNB-78 > 250 µM
